Assay results from paper PMC9882606, “Rationally designed inhibitors of the Musashi protein-RNA interaction by hotspot mimicry” (Research Square, 2023).

Tests used:
MSI2 [1] = biological target: MSI2 (Homo sapiens, UniProt Q96DH6); test: MS2-TRAP aptamer pull-down reporter assay in HEK293 cells; type: cell-based; design: HEK293 cells (with a high baseline MSI2 expression); endogenous in cells; host or cells: HEK293; conditions: HEK293, 24 h treatment; for total amount of MSI2 in cells: input prior to IP; for amount of Luc mRNA in cells (qPCR): prior to IP
Sequence of MSI2 (Homo sapiens, UniProt Q96DH6) (Q96DH6 whole entry): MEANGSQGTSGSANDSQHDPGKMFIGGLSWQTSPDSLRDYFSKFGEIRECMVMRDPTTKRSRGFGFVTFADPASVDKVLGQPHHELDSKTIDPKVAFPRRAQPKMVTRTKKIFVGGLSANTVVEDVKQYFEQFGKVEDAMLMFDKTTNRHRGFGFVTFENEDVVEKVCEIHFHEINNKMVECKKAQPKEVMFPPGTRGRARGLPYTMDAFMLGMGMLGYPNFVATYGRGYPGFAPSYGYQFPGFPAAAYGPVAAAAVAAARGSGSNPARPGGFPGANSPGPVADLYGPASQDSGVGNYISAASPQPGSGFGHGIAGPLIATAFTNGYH
Source text: Figure 5: Characterization of R12–8–44–3 in a reporter cell line. […] As a positive control, Ro 08–2750 (aka “Ro”) is also included in these studies. (B) Schematic of reporter assay. HEK293 cells are transfected with a plasmid encoding an arbitrary gene (Luc) with UAG repeats (to recruit MSI2) and MS2 repeats (for pulldown) appended to its 3’ UTR. The same vector also includes FLAG-labeled MS2-BP. Upon anti-FLAG immunoprecipitation (IP), the FLAG-labeled MS2-BP allows purification of the Luc mRNA along with any associated factors. (C) Prior to IP, cells express Luc mRNA to a similar extent irrespective of whether they were treated with DMSO, R12-neg, R12–8–44–3, or Ro. (D) Prior to IP (“input”), MSI2 is detected in all samples to a similar extent (as is KU-86 loading control). After pulldown of Luc mRNA, MSI2 is found associated with the mRNA in cells treated with DMSO or R12-neg, but not in cells that had been treated with R12–8–44–3 or Ro. Representative image is shown; quantification is plotted as the average of 2 independent experiments ± S.E.M. Statistical analysis was performed using unpaired two tailed t-test, with * indicating p<0.05. Uncropped Western blots from this experiment are provided as Figure S8.
To determine whether inhibition of MSI1/MSI2 by R12–8–44–3 would apply in a cellular context, we adapted an aptamer pull-down reporter assay that we previously used to validate candidate Musashi target genes. Briefly, our approach is a variation of the MS2-TRAP (MS2-tagged RNA affinity purification) method, which uses bacteriophage protein MS2-BP to extract from cells any factors that associate with RNAs containing a specific stem-loop structure (MS2) from the phage genome. Here, we designed an mRNA construct that would include a series of MS2 hairpins and also a MSI2 recognition sequence. We transfected this construct into cells that also express FLAG-tagged MS2-BP (a protein unrelated to MSI2). By affinity purification using the FLAG tag, proteins bound to the designed mRNA can be extracted from cells.
To test for inhibition of MSI2 in cells, we transfected HEK293 cells (with a high baseline MSI2 expression), with the pMS2-LUC-3’UTR from our previous studies. This vector appends onto the 3’UTR of an arbitrary gene (in this case luciferase) two key elements: UAG-motifs comprising a MSI2 recognition sequence, and a series of five MS2 hairpins. The same vector also encodes the FLAG-MS2-BP fusion needed for affinity purification (Figure 5b). Cells were then treated with each compound of interest for 24 h, and then the cells were subsequently harvested and used for anti-FLAG immunoprecipitation. […] Using qPCR we evaluated the amount of Luc mRNA in cells treated with R12–8–44–3, R12-neg, or Ro, and found this to be unchanged (Figure 5c).

MSI1 RRM1 [2] = biological target: T1, MSI1 RRM1 (Homo sapiens, UniProt O43347); test: Fluorescence polarization (FP) competition assay with fluorescein-labeled RNA; type: binding; conditions: for inhibition in FP competition assay: MSI1 RRM1, result in words
T1 sequence (O43347 20-110 limits assumed): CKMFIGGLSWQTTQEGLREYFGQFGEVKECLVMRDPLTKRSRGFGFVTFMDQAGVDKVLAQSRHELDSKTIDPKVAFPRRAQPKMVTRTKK
Source text: Figure 1: The hotspot mimicry approach. […] (A) The structure of the MSI1 / RNA complex. The RNA (sticks) wraps around the protein (spheres). Two adjacent bases, A106 and G107 (magenta), are buried in a shallow pocket on the protein surface. (B) An interaction map is generated from the RNA in the complex, by collecting deeply buried bases (magenta) and atoms involved in intermolecular hydrogen bonds (acceptors shown in yellow, donors in green). […] Positive values indicate diminished binding when a given base is replaced with an abasic site, showing that A106 and G107 contribute more than the other nearby bases to the binding affinity of this interaction. (E) The hotspot pharmacophore serves as a template for ligand-based screening, searching for compounds that would mimic the three-dimensional features of the pharmacophore. The screen led to the identification of compound R12, which mimics the geometry of the rings and provides three of the four desired hydrogen bonding groups. (F) R12 competes with fluorescein-labeled RNA for MSI1 binding, as observed through a fluorescence polarization assay. […] (G) Superposition of the hotspot pharmacophore back onto the protein structure illustrates the interactions that should be captured by an ideal ligand: stacking against three aromatic sidechains, and four intermolecular hydrogen bonds.
We applied our “hotspot mimicry” approach to the structure of Musashi-1 RRM1 bound to cognate RNA [54], and found a single hotspot pharmacophore derived from an adjacent pair of buried bases, Adenine106 and Guanine107 (Figure 1a). […] This pharmacophore captures both the aromatic stacking and the hydrogen bonding of the RNA hotspot through its inclusion of ring moieties and donor/acceptor positions, respectively (Figure 1c). To test whether these two particular bases indeed serve as a hotspot of the MSI1 RRM1 / RNA interaction, we used a fluorescence polarization (FP) competition assay (see Supporting Methods) to measure the binding affinity of RNA variants that maintained the backbone but lacked individual bases. […] In contrast, introduction of an abasic site at other nearby positions affected binding much less. Confirmation that A106 and G107 serve as hotspot bases of this interaction thus provided experimental evidence supporting the pharmacophore selection from our computational approach.

MSI2 [3] = test: Immunoblot of cellular MSI2 protein levels in PC9 cells; type: cell-based, human; conditions: PC9, 20 μM compound for 1, 3, 6, 24, or 48 hours
Source text: To explore the effect of these MSI2 inhibitors in a cancer-relevant cellular context, we selected two MSI2-dependent cancer cell lines: non-small cell lung cancer cell line PC9 and leukemia cell line K562 [73, 98–101]. Upon treatment of PC9 cells with Ro, R12–8–44–3, or negative control R12-neg, we found at multiple time points that cellular MSI2 protein levels were unchanged (Figure 6a). To confirm target engagement, we therefore adapted the cellular thermal shift assay (CETSA). To determine experimental conditions, we first harvested cells and incubated at increasing temperatures; we then removed aggregated protein by centrifugation and used Western blotting to probe the amount of MSI2 remaining in the soluble fraction (Figure 6b, Figure S9). Having established 49 °C as the midpoint of the transition under these (non-equilibrium) conditions, we then treated cells with our candidate MSI2 inhibitor for 3 h, and heated to 49 °C.
Figure 6: Direct cellular engagement of MSI2 interaction by R12–44–3. (A) Immunoblot from PC9 cells treated with Ro (positive control), R12-neg (negative control), or R12–8–44–3. Cells were treated with 20 μM compound for 1, 3, 6, 24, or 48 hours. MSI2 protein abundance was then quantified and normalized to untreated sample. One representative image is shown; quantification is presented as the average ± S.E.M. from 3 independent replicates. (B) Thermal-induced aggregation of cellular MSI2 in the PC9 cell line. Cells were briefly incubated at temperatures between 40 °C to 67 °C, then centrifuged and the amount of MSI2 remaining in the soluble fraction was quantified by Western blotting. […] One representative image is shown; quantification is presented as the average ± S.E.M. from 3 independent replicates, normalized first to beta-actin and then to DMSO control. […] One representative image is shown; quantification is presented as the average ± S.E.M. from 3 independent replicates, normalized first to beta-actin and then to DMSO control. […]

[4] = Solubility as noted during FP testing; type: physicochemical; conditions: result in words
Source text: We then used this pharmacophore as a template for virtual screening. The 12 top-scoring hits identified from the resulting screen could each be classified into one of three diverse chemotypes (Figure S1). While none of these scaffolds bear any obvious resemblance in chemical structure to a nucleobase pair, the overlap in three-dimensional shape and hydrogen bonding potential between the hotspot pharmacophore and the modeled conformation of each compound is immediately evident. Despite this strong similarity, none of the 12 hit compounds recapitulated all four of the polar groups included in the hotspot pharmacophore, and only three hit compounds matched to three of the polar groups: R12 (Figure 1e), its close analog R4, and R7 (Figure S2).
(§1) Out of concern that R12–7’s activity may be associated with compound aggregation, we elected to continue with optimization of R12–8 (Figure 2b).

MSI1 RRM1 [5] = biological target: T1, MSI1 RRM1; test: Differential Scanning Fluorimetry (DSF); type: binding; conditions: increasing compound dose
Source text: as §1
To further characterize R12–8–44–3, we applied differential scanning fluorimetry (DSF) as an orthogonal secondary assay. […] While this could be a sign of apparent inhibition occurring through aggregation, there are also legitimate inhibitors that reduce their target protein’s melting temperature. An alternate explanation could simply be that MSI1’s folding landscape is not simply two-state, and that a partially-folded intermediate stabilized by R12–8–44–3 affects the unfolding transition.

PC9 cells [6] = test: CellTiter-Blue cell viability, PC9; type: cell-based, human; conditions: PC9, 3 days, dose-response
Description: (§2) Figure 7: Cellular characterization of MSI2 inhibition by R12–8–44–3. (A) Quantification of mRNA immunoprecipitation (RIP) results. Cells were treated with 10 μM of the indicated compounds for 8 hours. After immunoprecipitation with anti-MSI2, mRNA targets were quantified. The amount of each target mRNA in the pulldown was calculated relative to the input, and results from all targets were normalized to PTP4A1. Treating cells with R12–8–44–3 disrupted the interaction with all four cognate mRNAs (PTP4A, SMAD3, EGFR, and MSI2). Data are presented as the average ± S.E.M. from at least 3 independent replicates. […] Cells were treated with indicated compounds at two concentrations (5 μM and 20 μM) for 48 hours, then protein levels of relevant MSI2 targets were determined (EGFR, SMAD3, and MSI2). One representative image is shown; quantification is presented as the average ± S.E.M. from at least 3 independent replicates, normalized first to beta-actin and then to DMSO-treated cells. (C) Cell viability dose-response quantified by CellTiter-Blue after 3 days (left) and cell proliferation with 10μM of compounds quantified by clonogenic assay after 7 days (right). […] (D) Cell viability quantified by clonogenic assay of PC9 cell line after 7-day treatment with 2 nM osimertinib (osi alone), osimertinib with 10 μM R12–8–44–3, or osimertinib with 10 μM R12-neg. […]

leukemia/lymphoma models = tested on: leukemia/lymphoma models; design: method as in PMID 31217428, PMID 36167829; conditions: in vivo leukemia/lymphoma models; cited from earlier work
PC9 cells [7] = test: Clonogenic assay, PC9; type: cell-based, human; conditions: PC9, 10 μM, 7 days
Description: as §2

MSI1/MSI2 = tested on: MSI1/MSI2; design: method as in PMID 31217428, PMID 36167829; conditions: in vitro; cited from earlier work

SMILES	MSI2 purified with reporter mRNA (anti-FLAG pulldown) (MSI2 [1])	total amount of MSI2 in cells (MSI2 [1])	amount of Luc mRNA in cells (qPCR) (MSI2 [1])	inhibition in FP competition assay (MSI1 RRM1 [2])	cellular MSI2 protein levels (MSI2 [3])	solubility [4]	change of the protein's melting temperature (MSI1 RRM1 [5])	further results
Cc1sc2nc(COC(=O)c3cccc(Cl)c3Cl)nc(N)c2c1C [R12-neg]	does not disrupt MSI2 pulldown	unaffected	unchanged	inactive	unchanged			
Nc1nc(COC(=O)c2cncc(Br)c2)nc2ccccc12 [R12]				showed inhibition		low solubility		
COc1ccc(C(=O)OCc2nc(N)c3ccccc3n2)c(N)c1 [R12–8]				superior inhibition and solubility than R12		superior inhibition and solubility than R12	monotonically increasing stabilization with increasing dose	
COc1ccc(C(=O)OCc2nc(N)c3c(C)c(C)sc3n2)c(N)c1 [R12–8–44]							monotonically-increasing melting temperature with increasing ligand concentration	improvement in potency over parent compound (MSI1 RRM1 [2]; FP assay, MSI1 RRM1): more than ten-fold improvement in potency
Cc1cc2nc3c(=O)[nH]c(=O)nc-3n(C)c2cc1C=O [Ro 08–2750, reference compound]	much less MSI2 is purified	unaffected	unchanged		unchanged			cell viability (CellTiter-Blue) (PC9 cells [6]): dramatically diminishes cell viability; disease burden (leukemia/lymphoma models): reduce disease burden; cell proliferation (clonogenic assay) (PC9 cells [7]): dramatically diminishes cell viability; inhibition of RNA-binding activity of MSI1/MSI2 (MSI1/MSI2): inhibit the RNA-binding activity of MSI1/MSI2 in vitro
